Assay results published in patent publication US20090186868A1, “Taxane Compound Having Azetidine Ring Structure” (Daiichi Sankyo Company Limited, priority 2005, published 2009).
≈ marks a conversion by molar mass, not a printed value. Where two headings read alike, the source gives them in different places.

Experiments:
[1] = Solubility in first and second solution for disintegration test (Japanese Pharmacopoeia); assay type: physicochemical; conditions: for solubility: thermodynamic from solid
Protocol: Solubility of each compound was determined in the first solution for disintegration test according to Japanese Pharmacopoeia (henceforth referred to as the first solution, solution obtained by adding 7 mL of hydrochloric acid and water to 2.00 g of sodium chloride to dissolve sodium chloride and fill up the solution to 1000 mL, pH 1.2) and the second solution for disintegration test according to Japanese Pharmacopoeia (henceforth referred to as the second solution, solution obtained by adding 118 mL of 0.2 mol/L solution of sodium hydroxide to 6.80 g of potassium dihydrogenphosphate, adding water to the mixture to dissolve potassium dihydrogenphosphate and filling up the solution to 1000 mL, pH 6.8).
Each test compound was dissolved in 100% dimethyl sulfoxide (DMSO) at a concentration of 10 mM, and 50 μL of the solution was lyophilized. The lyophilized test compound was added with 250 μL of the first solution or second solution, and the mixture was stored at room temperature for 12 hours or longer under light shielding, and filtered (0.7 μm). The filtrate was taken in a volume of 90 μL, and added with 50% DMSO (90 μL) to obtain a two-fold diluted solubility sample. The two-fold dilution solubility sample was taken in a volume of 20 μL, and added with 50% DMSO (180 μL) to obtain a […] diluted solubility sample. Solubility of each test sample was determined by quantifying the test compound in the resulting diluted solubility test samples using high-performance liquid chromatography.

B16 melanoma BL6 = assay: Antitumor effect in mice subcutaneously transplanted with B16 melanoma BL6; assay type: in vivo, Mice (C57BL/6); conditions: for Therapeutic index: MTD/MED; for Effective dose range: range from MED to MTD, antitumor effect of 58% or more considered effective
From the text: (§1) Mice (C57BL/6, Charles River Japan) were subcutaneously transplanted with B16 melanoma BL6 (Cancer Res., Poste, G., Fidler, I. J. et al., 1980, 40:1636; Bioorg. Med. Chem. Lett., Takeda, Y. et al., 2003, 13:185-190), or M5076 (obtained from Japanese Foundation for Cancer Research), which is a histiocytoma expressing P-gp. Four days after the transplantation in the case of B16 melanoma BL6, or 8 to 10 days after the transplantation in the case of M5076, each test compound suspended in a 0.5% aqueous solution of carboxymethylcellulose sodium, or dissolved in EtOH:Tween 80:5% glucose=5:5:90 (v/v %) was orally (po) or intravenously (iv) administered to the mice. Ten days after the administration in the case of B16 melanoma BL6, or 8 to 10 days after the administration in the case of M5076, the mice were dissected, and tumor weights were measured. The antitumor effect was calculated in accordance with the following equation.
(§2) [1−(Average tumor weight of compound administration group/average tumor weight of solvent administration group)]×100
(§3) An antitumor effect of 58% or more was considered effective (Int. J. Cancer, 1989, 43:637-44), and the maximum tolerance dose (MTD, maximum dose not causing death, mg/kg) and minimum effective dose (MED, mg/kg) showing effectiveness were obtained, respectively. The therapeutic index was calculated in accordance with the equation: MTD/MED.
(§4) ND means that the test was not performed. The effective dose range means the range of from MED to MTD.

[2] = tested on: M5076 (histiocytoma expressing P-gp); assay: Antitumor effect in mice subcutaneously transplanted with M5076; assay type: in vivo, Mice (C57BL/6); conditions: for Therapeutic index: MTD/MED; for Effective dose range: range from MED to MTD, antitumor effect of 58% or more considered effective
From the text: as §1, §2, §3, §4

[3] = aqueous buffer, second solution for disintegration test, pH 6.8, room temperature, 12 hours or longer, read-out: Solubility (μg/mL) pH 6.8
[4] = simulated gastric fluid, first solution for disintegration test, pH 1.2, room temperature, 12 hours or longer, read-out: Solubility (μg/mL) pH 1.2
[5] = first solution for disintegration test, pH 1.2, room temperature, 12 hours or longer
[6] = second solution for disintegration test, pH 6.8, room temperature, 12 hours or longer

SMILES	solubility [1, 3] [µg/mL]	solubility [1, 4] [µg/mL]	Therapeutic index (B16 melanoma BL6; B16 Melanoma BL6, po)	Therapeutic index (B16 melanoma BL6; B16 Melanoma BL6, iv)	also measured
CC(=O)O[C@@]12CO[C@@H]1CC[C@@]1(C)[C@@H]3O[C@H](CN4CC(C)(O)C4)O[C@@H]3C3=C(C)[C@@H](OC(=O)[C@H](O)[C@@H](NC(=O)OC(C)(C)C)c4ncccc4F)C[C@@](O)([C@@H](OC(=O)c4ccccc4)[C@@H]12)C3(C)C [Example 12, (1S,2S,3R,4S,5R,8R,9S,10R,13S)-4-(Acetoxy)-2-(benzoyloxy)-5,20-epoxy-1-hydroxy-9,10-[(1S)-2-(3-hydroxy-3-methylazetidino)ethylidenedioxy]tax-11-en-13-yl (2R,3S)-3-(tert-butoxycarbonylamino)-3-(3-fluoro-2-pyridyl)-2-hydroxypropionate]	92 (≈ 99.6 µM)	1100 (≈ 1190 µM)	4.1		
CC(=O)OC12COC1CCC1(C)C3OC(CN4CCC4)OC3C3=C(C)C(OC(=O)C(O)C(CF)NC(=O)OC(C)(C)C)CC(O)(C(OC(=O)c4ccccc4)C12)C3(C)C [Example 34, (1S,2S,3R,4S,5R,8R,9S,10R,13S)-4-(Acetoxy)-9,10-[(1S)-2-(azetidino)ethylidenedioxy]-2-(benzoyloxy)-5,20-epoxy-1-hydroxytax-11-en-13-yl (2R,3R)-3-(tert-butoxycarbonylamino)-4-fluoro-2-hydroxybutyrate]				4.2	Solubility (μg/mL) pH 1.2 [1, 5]: 830 μg/mL; Solubility (μg/mL) pH 6.8 [1, 6]: 310 μg/mL; Effective dose range (B16 melanoma BL6; B16 Melanoma BL6, iv): 10.1 to 42.0 mg/kg
CC(=O)O[C@@]12CO[C@@H]1CC[C@@]1(C)[C@@H]3O[C@H](CN4CC(C(=O)N(C)C)C4)O[C@@H]3C3=C(C)[C@@H](OC(=O)[C@H](O)[C@@H](NC(=O)OC(C)(C)C)c4ccccn4)C[C@@](O)([C@@H](OC(=O)c4ccccc4)[C@@H]12)C3(C)C [Example 9, (1S,2S,3R,4S,5R,8R,9S,10R,13S)-4-(Acetoxy)-2-(benzoyloxy)-9,10-{(1S)-[2-(3-dimethylcarbamoyl)azetidino]ethylidenedioxy}-5,20-epoxy-1-hydroxytax-11-en-13-yl (2R,3S)-3-(tert-butoxycarbonylamino)-2-hydroxy-3-(2-pyridyl)propionate]	130 (≈ 137 µM)	1400 (≈ 1480 µM)	6.0		
CC(=O)O[C@@]12CO[C@@H]1CC[C@@]1(C)[C@@H]3O[C@H](CN4CC[C@H]4CO)O[C@@H]3C3=C(C)[C@@H](OC(=O)[C@H](O)[C@@H](NC(=O)OC(C)(C)C)c4ncccc4F)C[C@@](O)([C@@H](OC(=O)c4ccccc4)[C@@H]12)C3(C)C [Example 22, (1S,2S,3R,4S,5R,8R,9S,10R,13S)-4-(Acetoxy)-2-(benzoyloxy)-5,20-epoxy-1-hydroxy-9,10-{(1S)-2-[(2S)-2-hydroxymethylazetidino]ethylidenedioxy}tax-11-en-13-yl (2R,3S)-3-(tert-butoxycarbonylamino)-3-(3-fluoro-2-pyridyl)-2-hydroxypropionate]	85 (≈ 92 µM)	1100 (≈ 1190 µM)	4.2	6.0	Therapeutic index ([2]; M5076, iv): 2.0; Effective dose range ([2]; M5076, iv): 12.0 to 24.5 mg/kg; Therapeutic index ([2]; M5076, po): 2.0; Effective dose range ([2]; M5076, po): 17.2 to 35 mg/kg
CC(=O)O[C@@]12CO[C@@H]1CC[C@@]1(C)[C@@H]3O[C@H](CN4CCC4)O[C@@H]3C3=C(C)[C@@H](OC(=O)[C@H](O)[C@@H](NC(=O)OC(C)(C)C)C(F)F)C[C@@](O)([C@@H](OC(=O)c4ccccc4)[C@@H]12)C3(C)C [Example 31, (1S,2S,3R,4S,5R,8R,9S,10R,13S)-4-(Acetoxy)-9,10-[(1S)-2-(azetidino)ethylidenedioxy]-2-(benzoyloxy)-5,20-epoxy-1-hydroxytax-1′-en-13-yl (2R,3R)-3-(tert-butoxycarbonylamino)-4,4-difluoro-2-hydroxybutyrate]			2.0	2.9	Solubility (μg/mL) pH 1.2 [1, 5]: 1000 μg/mL; Solubility (μg/mL) pH 6.8 [1, 6]: 160 μg/mL; Therapeutic index ([2]; M5076, iv): 1.0; Effective dose range ([2]; M5076, iv): 10.0 mg/kg; Effective dose range (B16 melanoma BL6; B16 Melanoma BL6, iv): 3.43 to 10.0 mg/kg; Effective dose range (B16 melanoma BL6; B16 Melanoma BL6, po): 8.82 to 18.0 mg/kg
CC(=O)O[C@@]12CO[C@@H]1CC[C@@]1(C)[C@@H]3O[C@H](CN4CC(S(C)(=O)=O)C4)O[C@@H]3C3=C(C)[C@@H](OC(=O)[C@H](O)[C@@H](NC(=O)OC(C)(C)C)c4ncccc4F)C[C@@](O)([C@@H](OC(=O)c4ccccc4)[C@@H]12)C3(C)C [Example 28, (1S,2S,3R,4S,5R,8R,9S,10R,13S)-4-(Acetoxy)-2-(benzoyloxy)-5,20-epoxy-1-hydroxy-9,10-{(1S)-2-[3-(methanesulfonyl)azetidino]ethylidenedioxy}tax-11-en-13-yl (2R,3S)-3-(tert-butoxycarbonylamino)-3-(3-fluoro-2-pyridyl)-2-hydroxypropionate]	18 (≈ 18.5 µM)	1300 (≈ 1340 µM)	4.2		
CC(=O)O[C@@]12CO[C@@H]1CC[C@@]1(C)[C@@H]3O[C@H](CN4CCC4)O[C@@H]3C3=C(C)[C@@H](OC(=O)[C@H](O)[C@@H](NC(=O)OC(C)(C)C)c4nccs4)C[C@@](O)([C@@H](OC(=O)c4ccccc4)[C@@H]12)C3(C)C [Example 40, (1S,2S,3R,4S,5R,8R,9S,10R,13S)-4-(Acetoxy)-9,10-[(1S)-2-(azetidino)ethylidenedioxy]-2-(benzoyloxy)-5,20-epoxy-1-hydroxytax-11-en-13-yl (2R,3R)-3-(tert-butoxycarbonylamino)-2-hydroxy-3-(2-thiazolyl)propionate]	150 (≈ 170 µM)	1000 (≈ 1130 µM)		4.2	
CC(=O)O[C@@]12CO[C@@H]1CC[C@@]1(C)[C@@H]3O[C@H](CN4CC[C@H]4C(=O)N(C)C)O[C@@H]3C3=C(C)[C@@H](OC(=O)[C@H](O)[C@@H](NC(=O)OC(C)(C)C)c4ccccn4)C[C@@](O)([C@@H](OC(=O)c4ccccc4)[C@@H]12)C3(C)C [Example 23, (1S,2S,3R,4S,5R,8R,9S,10R,13S)-4-(Acetoxy)-2-(benzoyloxy)-9,10-{(1S)-2-[(2S)-2-(dimethylcarbamoyl)azetidino]ethylidenedioxy}-5,20-epoxy-1-hydroxytax-11-en-13-yl (2R,3S)-3-(tert-butoxycarbonylamino)-2-hydroxy-3-(2-pyridyl)propionate]			2.9		solubility ([1]; pH 1.2, simulated gastric fluid): 1400 µg/mL (≈ 1480 µM); solubility ([1]; pH 6.8, aqueous buffer): 360 µg/mL (≈ 380 µM)
CC(=O)O[C@@]12CO[C@@H]1CC[C@@]1(C)[C@@H]3O[C@H](CN4CC[C@H]4CO)O[C@@H]3C3=C(C)[C@@H](OC(=O)[C@H](O)[C@@H](NC(=O)OC(C)(C)C)c4ccccn4)C[C@@](O)([C@@H](OC(=O)c4ccccc4)[C@@H]12)C3(C)C [Example 21, (1S,2S,3R,4S,5R,8R,9S,10R,13S)-4-(Acetoxy)-2-(benzoyloxy)-5,20-epoxy-1-hydroxy-9,10-{(1S)-2-[(2S)-2-hydroxymethylazetidino]ethylidenedioxy}tax-11-en-13-yl (2R,3S)-3-(tert-butoxycarbonylamino)-2-hydroxy-3-(2-pyridyl)propionate]	150 (≈ 166 µM)	> 1000	5.9		
